Values joined by “and” are separate entries in the source; they are usually repeats but may differ in a detail not shown here. Identical values can stand only once.
Assays:
[1] = Plasma concentration of mivorilaner in dogs given an oral liquid formulation daily (Example 1); assay type: in vivo; details: for Mivorilaner Concentration, Average: average of 6 canines, days 0-29; for Mivorilaner Concentration: individual canines, days 0-29, 0.75 mg/kg/day
Description: Methods: A pool of 14 dogs are to be preliminarily infested with ˜100 unfed adult C. felis in order to produce dogs that can suitably sustain a reliable infestation rate, defined as approximately 50% fleas being live at the end of a 48-hour period. The 12 dogs with the highest live flea counts are to be selected for inclusion in the study. The dogs are to be divided into a control group and a treatment group.
The dogs are to be housed individually during the study period and are to be fed a commercial dry dog food ration with ad libitum access to water.
Each dog in the treatment group is to receive by mouth a liquid formulation of isoxazoline. The dosage of 0.75 mg/kg is to be administered to the dogs on each of days 0-29.
Dogs in the control group are not to receive isoxazoline or any other tick control treatment. Each dog in the treatment group is to be offered its daily ration (dry food) and the individual doses of liquid formulation are to be administered after the individual dog has eaten at least 25% of its total daily ration. After receiving the dose of isoxazoline, the dogs are to be allowed to continue eating. This mimics incorporating the isoxazoline in feed. Each dog in the treatment group and the control group is to be experimentally infested with 50 adult ticks on test days 5, 12, 19, 28 and 35. Comb counts for live and moribund attached ticks are to be conducted on days 7, 14, 21, 30 and 37.

[2] = Plasma concentration of mivorilaner in dogs fed medicated daily feed (Example 6); assay type: in vivo; parameters: unit not given here
Description: Methods: A pool of dogs are to be preliminarily infested with ˜50 unfed adult R. sanguineus ticks in order to produce dogs that can suitably sustain a reliable infestation rate, defined as approximately 25% of attached ticks being live at the end of a 72-hour period. The 24 dogs with the highest live attached tick counts are to be selected for inclusion in the study. The 18 dogs with the highest live attached tick counts are to be randomly assigned to one of a control group and 2 treatment groups. The 6 dogs with the next highest live attached tick counts are to be assigned to a third treatment group.
The dogs are to be housed individually during the study period and are to have ad libitum access to water.
Each dog in a treatment group (test groups 2-4) is to receive a medicated daily feed from study days 0-49. The medicated daily feed is to be offered to the dogs for 1 hour on each of days 0-49 according to test groups listed in TABLE 7.
Sample results of the average plasma concentration of isoxazoline in a canine's blood at different dosage levels are shown in TABLE 8 and FIG. 9 for mivorilaner.

With `O=C(CNC(=O)c1sc(C2=NO[C@@](c3cc(Cl)c(F)c(Cl)c3)(C(F)(F)F)C2)c2c1CCC2)NCC(F)F` [Mivorilaner, 3-[(5S)-5-(3,5-dichloro-4-fluorophenyl)-5-(trifluoromethyl)-4,5-dihydroisoxazol-3-yl]-N-[2-[(2,2-difluoroethyl)amino]-2-oxoethyl]-5,6-dihydro-4H-cyclopenta[c]thiophene-1-carboxamide] the “Mivorilaner Concentration, Average” value ([1]; Day 7, 0.75 mg/kg/day oral) was 1449 ng/mL, the “Mivorilaner Concentration, Average” value ([1]; Day 14, 0.75 mg/kg/day oral) was 2105 ng/mL and the “Mivorilaner Concentration, Average” value ([1]; Day 21, 0.75 mg/kg/day oral) was 2725 ng/mL. The “Mivorilaner Concentration, Average” value ([1]; Day 30, 0.75 mg/kg/day oral) was 2628 ng/mL, the “Mivorilaner Concentration, Average” value ([1]; Day 37, 0.75 mg/kg/day oral) was 2017 ng/mL and the “Mivorilaner Concentration” value ([1]; Day 3, 0.75 mg/kg/day oral) was 556 ng/mL and 648 ng/mL and 579 ng/mL and 660 ng/mL. The “Mivorilaner Concentration” value ([1]; Day 7, 0.75 mg/kg/day oral) was 1330 ng/mL and 1620 ng/mL and 994 ng/mL and 1470 ng/mL, the “Mivorilaner Concentration” value ([1]; Day 14, 0.75 mg/kg/day oral) was 1990 ng/mL and 2530 ng/mL and 1560 ng/mL and 2120 ng/mL and the “Mivorilaner Concentration” value ([1]; Day 21, 0.75 mg/kg/day oral) was 2750 ng/mL and 2820 ng/mL and 2450 ng/mL and 2720 ng/mL. The “Mivorilaner Concentration” value ([1]; Day 30, 0.75 mg/kg/day oral) was 2570 ng/mL and 2890 ng/mL and 2320 ng/mL and 2600 ng/mL, the “Mivorilaner Concentration” value ([1]; Day 37, 0.75 mg/kg/day oral) was 2070 ng/mL and 2410 ng/mL and 1880 ng/mL and 2010 ng/mL and the “average plasma concentration of isoxazoline in a canine's blood” value (“average plasma concentration” for short) ([2]; Group 2-106 mg/kg feed (anticipated 1 mg/kg daily), Time 1 hr) was 49.98. For the same molecule, the “average plasma concentration” value ([2]; Group 2-106 mg/kg feed (anticipated 1 mg/kg daily), Time 3 hr) was 292.00, the “average plasma concentration” value ([2]; Group 2-106 mg/kg feed (anticipated 1 mg/kg daily), Time 6 hr) was 539.00 and the “average plasma concentration” value ([2]; Group 2-106 mg/kg feed (anticipated 1 mg/kg daily), Time 10 hr) was 505.40. For the same molecule, the “average plasma concentration” value ([2]; Group 2-106 mg/kg feed (anticipated 1 mg/kg daily), Time 24 hr) was 458.60, the “average plasma concentration” value ([2]; Group 2-106 mg/kg feed (anticipated 1 mg/kg daily), Time 48 hr) was 771.83 and the “average plasma concentration” value ([2]; Group 2-106 mg/kg feed (anticipated 1 mg/kg daily), Time 96 hr) was 1570.50. The “average plasma concentration” value ([2]; Group 2-106 mg/kg feed (anticipated 1 mg/kg daily), Time 168 hr) was 2156.67, the “average plasma concentration” value ([2]; Group 2-106 mg/kg feed (anticipated 1 mg/kg daily), Time 240 hr) was 3003.33 and the “average plasma concentration” value ([2]; Group 2-106 mg/kg feed (anticipated 1 mg/kg daily), Time 336 hr) was 3290.00. For the same molecule, the “average plasma concentration” value ([2]; Group 3-106 mg/kg feed (anticipated 1 mg/kg daily), Time 1 hr) was 40.41, the “average plasma concentration” value ([2]; Group 3-106 mg/kg feed (anticipated 1 mg/kg daily), Time 3 hr) was 264.83 and the “average plasma concentration” value ([2]; Group 3-106 mg/kg feed (anticipated 1 mg/kg daily), Time 6 hr) was 467.50. The “average plasma concentration” value ([2]; Group 3-106 mg/kg feed (anticipated 1 mg/kg daily), Time 10 hr) was 419.17, the “average plasma concentration” value ([2]; Group 3-106 mg/kg feed (anticipated 1 mg/kg daily), Time 24 hr) was 435.17 and the “average plasma concentration” value ([2]; Group 3-106 mg/kg feed (anticipated 1 mg/kg daily), Time 48 hr) was 781.83. The “average plasma concentration” value ([2]; Group 3-106 mg/kg feed (anticipated 1 mg/kg daily), Time 96 hr) was 1596.67, the “average plasma concentration” value ([2]; Group 3-106 mg/kg feed (anticipated 1 mg/kg daily), Time 168 hr) was 2406.67 and the “average plasma concentration” value ([2]; Group 3-106 mg/kg feed (anticipated 1 mg/kg daily), Time 240 hr) was 3026.67. For the same molecule, the “average plasma concentration” value ([2]; Group 3-106 mg/kg feed (anticipated 1 mg/kg daily), Time 336 hr) was 3516.67, the “average plasma concentration” value ([2]; Group 4-318 mg/kg feed (anticipated 3 mg/kg daily), Time 1 hr) was 143.75 and the “average plasma concentration” value ([2]; Group 4-318 mg/kg feed (anticipated 3 mg/kg daily), Time 3 hr) was 846.50. For the same molecule, the “average plasma concentration” value ([2]; Group 4-318 mg/kg feed (anticipated 3 mg/kg daily), Time 6 hr) was 1265.67, the “average plasma concentration” value ([2]; Group 4-318 mg/kg feed (anticipated 3 mg/kg daily), Time 10 hr) was 1198.17 and the “average plasma concentration” value ([2]; Group 4-318 mg/kg feed (anticipated 3 mg/kg daily), Time 24 hr) was 1021.17. For the same molecule, the “average plasma concentration” value ([2]; Group 4-318 mg/kg feed (anticipated 3 mg/kg daily), Time 48 hr) was 2011.67, the “average plasma concentration” value ([2]; Group 4-318 mg/kg feed (anticipated 3 mg/kg daily), Time 96 hr) was 3928.33 and the “average plasma concentration” value ([2]; Group 4-318 mg/kg feed (anticipated 3 mg/kg daily), Time 168 hr) was 6461.67. For the same molecule, the “average plasma concentration” value ([2]; Group 4-318 mg/kg feed (anticipated 3 mg/kg daily), Time 240 hr) was 8696.67 and the “average plasma concentration” value ([2]; Group 4-318 mg/kg feed (anticipated 3 mg/kg daily), Time 336 hr) was 11600.00.
